Measurements taken from PubChem BioAssay AID1963429 (Molecular Pharmacology Branch, DTP, NCI, 2024).

Tested on: 126254-015-R-J1-PDC complex spheroid growth, % test/control
Experiment: Anticancer human tumor 126254-015-R-J1-PDC patient-derived soft tissue sarcoma cell line growth inhibition [Asc]
Settings: for IC50: curve of first compound; for viability, T/C: stronger effect = lower value
In short: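 Concentration series start at each agent's clinical Cmax, or at 10 microM when none is established, and drop in half-log steps; agents are applied alone or together to complex spheroids built with HUVEC and hMSC.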
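Also: spheroids exposed to compound for seven days.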
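For viability, T/C in this document: 100% = DMSO vehicle control wells.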

## CCN1C(C(=O)NC23CCC(C(=O)O)(CC2)CC3)C(c2cccc(Cl)c2F)C2(C(=O)Nc3cc(Cl)ccc32)C12CCCCC2 (stereo not given) + Cc1c(S(C)(=O)=O)c(-c2cc(F)cc(N3CCN(c4ccc(NS(=O)(=O)c5ccc(NC(CCN6CCC(C(=O)OCCCP(=O)(O)O)CC6)CSc6ccccc6)c(S(=O)(=O)C(F)(F)F)c5)cc4)CC3)c2)c(-c2ccc(Cl)cc2)n1C(C)C
Second compound 0.1 µM
  IC50: > 3000 nM
Second compound 0.316 µM
  IC50: > 3000 nM
Second compound 1 µM
  IC50: > 3000 nM
Second compound 3.16 µM
  IC50: > 3000 nM
Second compound 10 µM
  IC50: > 3000 nM
Second compound 0.1 µM, first compound 0.00949 µM
  viability, T/C: 90.7%
Second compound 0.1 µM, first compound 0.03 µM
  viability, T/C: 85.1%
Second compound 0.1 µM, first compound 0.0949 µM
  viability, T/C: 91.7%
Second compound 0.1 µM, first compound 0.3 µM
  viability, T/C: 88.6%
Second compound 0.1 µM, first compound 0.949 µM
  viability, T/C: 93.9%
Second compound 0.1 µM, first compound 3 µM
  viability, T/C: 88.3%
Second compound 0.316 µM, first compound 0.00949 µM
  viability, T/C: 83.3%
Second compound 0.316 µM, first compound 0.03 µM
  viability, T/C: 82.4%
Second compound 0.316 µM, first compound 0.0949 µM
  viability, T/C: 81.9%
Second compound 0.316 µM, first compound 0.3 µM
  viability, T/C: 79.7%
Second compound 0.316 µM, first compound 0.949 µM
  viability, T/C: 74.9%
Second compound 0.316 µM, first compound 3 µM
  viability, T/C: 76.9%
Second compound 1 µM, first compound 0.00949 µM
  viability, T/C: 86.1%
Second compound 1 µM, first compound 0.03 µM
  viability, T/C: 84.4%
Second compound 1 µM, first compound 0.0949 µM
  viability, T/C: 87.1%
Second compound 1 µM, first compound 0.3 µM
  viability, T/C: 79.4%
Second compound 1 µM, first compound 0.949 µM
  viability, T/C: 82.7%
Second compound 1 µM, first compound 3 µM
  viability, T/C: 71.4%
Second compound 3.16 µM, first compound 0.00949 µM
  viability, T/C: 76%
Second compound 3.16 µM, first compound 0.03 µM
  viability, T/C: 83.8%
Second compound 3.16 µM, first compound 0.0949 µM
  viability, T/C: 77.2%
Second compound 3.16 µM, first compound 0.3 µM
  viability, T/C: 78.7%
Second compound 3.16 µM, first compound 0.949 µM
  viability, T/C: 81.3%
Second compound 3.16 µM, first compound 3 µM
  viability, T/C: 70.5%
Second compound 10 µM, first compound 0.00949 µM
  viability, T/C: 82.3%
Second compound 10 µM, first compound 0.03 µM
  viability, T/C: 86.5%
Second compound 10 µM, first compound 0.0949 µM
  viability, T/C: 88.8%
Second compound 10 µM, first compound 0.3 µM
  viability, T/C: 82.5%
Second compound 10 µM, first compound 0.949 µM
  viability, T/C: 75.5%
Second compound 10 µM, first compound 3 µM
  viability, T/C: 72.2%

## CNC(C)C(=O)NC1CN(S(=O)(=O)c2cccc(S(=O)(=O)N3CCC4CCC(C(=O)NC(c5ccccc5)c5ccccc5)N4C(=O)C(NC(=O)C(C)NC)C3)c2)CCC2CCC(C(=O)NC(c3ccccc3)c3ccccc3)N2C1=O (stereo not given) + Cc1c(S(C)(=O)=O)c(-c2cc(F)cc(N3CCN(c4ccc(NS(=O)(=O)c5ccc(NC(CCN6CCC(C(=O)OCCCP(=O)(O)O)CC6)CSc6ccccc6)c(S(=O)(=O)C(F)(F)F)c5)cc4)CC3)c2)c(-c2ccc(Cl)cc2)n1C(C)C
Second compound 0.1 µM
  IC50: > 1000 nM
Second compound 0.316 µM
  IC50: 90.5 nM
Second compound 1 µM
  IC50: 107 nM
Second compound 3.16 µM
  IC50: 74.8 nM
Second compound 10 µM
  IC50: 59.8 nM
Second compound 0.1 µM, first compound 0.00316 µM
  viability, T/C: 83%
Second compound 0.1 µM, first compound 0.01 µM
  viability, T/C: 84.8%
Second compound 0.1 µM, first compound 0.0316 µM
  viability, T/C: 67.3%
Second compound 0.1 µM, first compound 0.1 µM
  viability, T/C: 55.6%
Second compound 0.1 µM, first compound 0.316 µM
  viability, T/C: 56.2%
Second compound 0.1 µM, first compound 1 µM
  viability, T/C: 45%
Second compound 0.316 µM, first compound 0.00316 µM
  viability, T/C: 85.8%
Second compound 0.316 µM, first compound 0.01 µM
  viability, T/C: 81.9%
Second compound 0.316 µM, first compound 0.0316 µM
  viability, T/C: 63.1%
Second compound 0.316 µM, first compound 0.1 µM
  viability, T/C: 47.3%
Second compound 0.316 µM, first compound 0.316 µM
  viability, T/C: 49.7%
Second compound 0.316 µM, first compound 1 µM
  viability, T/C: 36.5%
Second compound 1 µM, first compound 0.00316 µM
  viability, T/C: 87.5%
Second compound 1 µM, first compound 0.01 µM
  viability, T/C: 81.5%
Second compound 1 µM, first compound 0.0316 µM
  viability, T/C: 66.9%
Second compound 1 µM, first compound 0.1 µM
  viability, T/C: 47.9%
Second compound 1 µM, first compound 0.316 µM
  viability, T/C: 46.9%
Second compound 1 µM, first compound 1 µM
  viability, T/C: 36.3%
Second compound 3.16 µM, first compound 0.00316 µM
  viability, T/C: 90.7%
Second compound 3.16 µM, first compound 0.01 µM
  viability, T/C: 79%
Second compound 3.16 µM, first compound 0.0316 µM
  viability, T/C: 60.7%
Second compound 3.16 µM, first compound 0.1 µM
  viability, T/C: 46.1%
Second compound 3.16 µM, first compound 0.316 µM
  viability, T/C: 38.1%
Second compound 3.16 µM, first compound 1 µM
  viability, T/C: 32.6%
Second compound 10 µM, first compound 0.00316 µM
  viability, T/C: 80.2%
Second compound 10 µM, first compound 0.01 µM
  viability, T/C: 78.6%
Second compound 10 µM, first compound 0.0316 µM
  viability, T/C: 64.3%
Second compound 10 µM, first compound 0.1 µM
  viability, T/C: 38.2%
Second compound 10 µM, first compound 0.316 µM
  viability, T/C: 30.6%
Second compound 10 µM, first compound 1 µM
  viability, T/C: 27.8%
